From patent US8980833B2, “Tubulysine derivatives” (priority 2007, dated 2015)
Like-named read-outs stand apart in the source and are kept apart here.

Columns and labels:
Format in all cases: cell-based
[1] = system: HT-29 (colon) cells; test: MTS cell survival assay, HT-29 (colon); conditions: 48 hours incubation, read-out: IC50 cell line HT-29
Experimental: (§1) Seed 96-well plates at a concentration of 5000 cells/well in a volume of 100 μl with A2780 (ovarian), HT-29 (colon), MDA-MB-231 (breast), NCI-H1299 (non-small cell lung, MCF-7 (breast) cells or any other available cancer cell line. Incubate for 24 hours at 37° C.
(§2) Prepare a stock solution of Tubulysin derivative by dissolving at 10 mg/ml in methanol. Prepare dilutions of 1 mg/ml in methanol and 17 μg/ml (20 μM) in cell culture medium, and make serial 10-fold dilutions down to 2 pM in cell culture medium.
(§3) Add 100 μl of Tubulysin to triplicate wells for a final dose range of 1 pM to 10 μM. Reserve three wells for “untreated” cells and three wells of medium alone as a “blank”. Incubate plates at 37° C. for 48 hours.
(§4) Prepare MTS assay reagent by diluting CellTiter 96 AQueous One Solution (Promega) 5-fold into PBS/glucose (4.5 g/L). Aspirate cell culture medium. Aliquot 100 μl of MTS reagent to each well. Incubate at 37° C. for 1-2 hours depending on the cell line.
(§5) Shake the plates for 5 minutes and measure the absorbance at 485 nm using a plate reader (e.g. Tecan). Enter the raw data into an excel spreadsheet to obtain the % cell survival for each cell line. Graph dose (nM) vs. % cell survival and estimate IC50s from the graphs.
(§6) Use a 4-parameter logistic fit to obtain IC50 values: y=(a−d)/(1+(x/c)^b)+d • where • x=dose • y=% cell survival • a=lower asymptote • b=slope • c=IC50 • d=upper asymptote
(§7) Enter values for x and y. Estimate values for a, b, c, and d. Run the solver tool on the sum of squared errors cell. Minimize the sum of squared errors by varying parameters a through d. Obtain the IC50 (nM) from parameter c.

[2] = system: A2780 (ovarian) cells; test: MTS cell survival assay, A2780 (ovarian); conditions: 48 hours incubation, read-out: IC50 cell line A2780
Experimental: as §1, §2, §3, §4, §5, §6, §7

[3] = system: MCF-7 (breast) cells; test: MTS cell survival assay, MCF-7 (breast); conditions: read-out: IC50 cell line MCF-7
Experimental: as §1, §2, §3, §4, §5, §6, §7

[4] = system: NCI-H1299 (non-small cell lung) cells; test: MTS cell survival assay, NCI-H1299 (non-small cell lung); conditions: Homo sapiens, 48 hours incubation, read-out: IC50 cell line NCI-H1299
Experimental: as §1, §2, §3, §4
Shake the plates for 5 minutes and measure the absorbance at 485 nm using a plate reader (e.g. Tecan). Enter the raw data into an excel spreadsheet to obtain the % cell survival for each cell line. Graph dose (nM) vs. % cell survival and estimate IC50s from the graphs. […]

[5] = Homo sapiens, MCF7, 48 hours incubation

| SMILES | IC50 ([1]; Homo sapiens) [nM] | IC50 ([2]; Homo sapiens) [nM] | IC50 [3, 5] [nM] | further results |
| --- | --- | --- | --- | --- |
| CC[C@H](C)C(NC(=O)C1CCCCN1C)C(=O)N(COC(=O)CC(C)C)[C@H](C[C@@H](OC(C)=O)c1nc(C(=O)N[C@@H](Cc2ccc(O)cc2)C[C@H](C)C(=O)O)cs1)C(C)C (stereo partly shown) | – | – | – | IC50 [1]: 0.75 nM; IC50 [2]: 0.8 nM; IC50 ([3]; 48 hours incubation): 0.6 nM |
| CC[C@H](C)C(NC(=O)C1CCCCN1C)C(=O)N(C)[C@H](C[C@@H](OC(C)=O)c1nc(C(=O)N[C@@H](Cc2ccc(F)cc2)C[C@H](C)C(=O)O)cs1)C(C)C (stereo partly shown) | 3 | 0.8 | – | IC50 [4]: 1.93 nM |
| CCCN(C(=O)C(NC(=O)C1CCCCN1C)[C@@H](C)CC)[C@H](C[C@@H](OC(C)=O)c1nc(C(=O)N[C@@H](Cc2ccc(F)cc2)C[C@H](C)C(=O)O)cs1)C(C)C (stereo partly shown) | 0.48 | 0.3 | 0.4 | IC50 [4]: 0.52 nM |
| CCCCCCN(C(=O)C(NC(=O)C1CCCCN1C)[C@@H](C)CC)[C@H](C[C@@H](OC(C)=O)c1nc(C(=O)N[C@@H](Cc2ccc(OC)cc2)C[C@H](C)C(=O)O)cs1)C(C)C (stereo partly shown) | 0.43 | – | – | – |
| CCCCCN(C(=O)C(NC(=O)C1CCCCN1C)[C@@H](C)CC)[C@H](C[C@@H](OC(C)=O)c1nc(C(=O)N[C@@H](Cc2ccc(F)cc2)C[C@H](C)C(=O)O)cs1)C(C)C (stereo partly shown) | 0.35 | – | 0.6 | – |
| CCCN(C(=O)C(NC(=O)C1CCCCN1C)[C@@H](C)CC)[C@H](C[C@@H](OC(C)=O)c1nc(C(=O)N[C@@H](Cc2ccc(-c3ccccc3)cc2)C[C@H](C)C(=O)O)cs1)C(C)C (stereo partly shown) | 0.28 | – | 0.4 | – |
| CC[C@H](C)C(NC(=O)C1CCCN1C)C(=O)N(C)[C@H](C[C@@H](OC(C)=O)c1nc(C(=O)N[C@@H](Cc2ccc(F)cc2)C[C@H](C)C(=O)O)cs1)C(C)C (stereo partly shown) | 3.1 | – | 1.1 | – |
| CC[C@H](C)C(NC(=O)C1CCCN1C)C(=O)N(C)[C@H](C[C@@H](OC(C)=O)c1nc(C(=O)N[C@@H](Cc2ccc(N(C)C)cc2)C[C@H](C)C(=O)O)cs1)C(C)C (stereo partly shown) | 2.1 | 0.7 | – | – |
| CC[C@H](C)C(NC(=O)C1CCCCN1C)C(=O)N(C)[C@H](C[C@@H](OC(C)=O)c1nc(C(=O)N[C@@H](Cc2ccc(OC)cc2)C[C@H](C)C(=O)O)cs1)C(C)C (stereo partly shown) | 2 | 0.8 | 0.6 | – |
| CC[C@H](C)C(NC(=O)C1CCCCN1C)C(=O)N(C)[C@H](C[C@@H](OC(C)=O)c1nc(C(=O)N[C@@H](Cc2ccc(-c3ccccc3)cc2)C[C@H](C)C(=O)O)cs1)C(C)C (stereo partly shown) | 2.3 | 1.4 | – | – |
| CC[C@H](C)C(NC(=O)C1CCCCN1C)C(=O)N(COCC(C)C)[C@H](C[C@@H](OC(C)=O)c1nc(C(=O)N[C@@H](Cc2ccc(F)cc2)C[C@H](C)C(=O)O)cs1)C(C)C (stereo partly shown) | 3.5 | 0.9 | 1.1 | – |
| CCCN(C(=O)C(NC(=O)C1CCCCN1C)[C@@H](C)CC)[C@H](C[C@@H](OC(C)=O)c1nc(C(=O)N[C@H](CCC(=O)O)Cc2ccc(F)cc2)cs1)C(C)C (stereo partly shown) | 0.49 | 0.3 | – | – |
| CCCN(C(=O)C(NC(=O)C1CCCCN1C)[C@@H](C)CC)[C@H](CCc1nc(C(=O)N[C@H](CCC(=O)O)Cc2ccccc2)cs1)C(C)C (stereo partly shown) | 3.1 | 1.1 | – | – |
| CC(=O)O[C@H](C[C@H](C(C)C)N(COC(=O)c1ccccc1)C(=O)C(NC(=O)C1CCCCN1C)C(C)C)c1nc(C(=O)N[C@H](CCC(=O)O)Cc2ccc(F)cc2)cs1 (stereo partly shown) | 0.45 | – | 0.4 | – |
| CC[C@H](C)C(NC(=O)C1CCCCN1C)C(=O)N(CC)[C@H](C[C@@H](O)c1nc(C(=O)N[C@H](CCN)Cc2ccc(F)cc2)cs1)C(C)C (stereo partly shown) | 23 | – | 15.2 | – |
| CCCN(C(=O)C(NC(=O)C1CCCCN1C)[C@@H](C)CC)[C@H](CCc1nc(C(=O)N[C@H](CCCO)Cc2ccccc2)cs1)C(C)C (stereo partly shown) | 4.3 | 1.6 | – | – |
